Source: US7132431B2, “Anti-malarial compounds” (The University of Liverpool, priority 2001, dated 2006)
Read-outs that look alike come from different tables or passages of the source. One block for each molecule: values may come before it.

Experiments:
[1] = tested on: K1 strain of P. falciparum (chloroquine resistant); test: In vitro antimalarial activity, 48-h [3H]-hypoxanthine incorporation assay, K1 strain; format: cell-based, Plasmodium falciparum
Method: Antimalarial activity. Two strains of P. falciparum were used in this study: (a) The K1 strain which is known to be CQ resistant and (b) the HB3 strain which is sensitive to all antimalarials. Parasites were maintained in continuous culture using the method of Jensen and Trager. (J. Parasitol., 1977, 63, 883-886) Cultures were grown in flasks containing human erythrocytes (2-5%) with parasitemia in the range of 1% to 10% suspended in RPMI 1640 medium supplemented with 25 mM HEPES and 32 mM NaHCO3, and 10% human serum (complete medium). Cultures were gassed with a mixture of 3% O2, 4% CO2 and 93% N2. Antimalarial activity was assessed with an adaption of the 48-h sensitivity assay of Desjardins et al. (Antimicrob. Agents. Chemother., 1979, 16, 710-718.) using [^3H]-hypoxanthine incorporation as an assessment of parasite growth. Stock drug solutions were prepared in 100% dimethylsulphoxide (DMSO) and diluted to the appropriate concentration using complete medium. Assays were performed in sterile 96-well microtitre plates, each plate contained 200—1 of parasite culture (2% parasitemia, 0.5% haematocrit) with or without 10—1 drug dilutions. Each drug was tested in triplicate and parasite growth compared to control wells (which consituted 100% parasite growth). After 24-h incubation at 37° C., 0.5_Ci hypoxanthine was added to each well. Cultures were incubated for a further 24 h before they were harvested onto filter-mats, dried for 1 h at 55° C. and counted using a Wallac 1450 Microbeta Trilux Liquid scintillation and luminescence counter. IC50 values were calculated by interpolation of the probit transformation of the log dose—response curve. In Vivo Testing Protocol Male, random Swiss albino mice weighing 18-22 g were inoculated intraperitoneally with 10^7 parasitised erythrocytes with P. yoelii NS strain. Animals were then dosed daily via two routes (intraparential or oral) for four consecutative days beginning on the day of infection. Compounds were dissolved or suspended in the vechile solution consisting of methanol, phosphate buffered saline and DMSO (2:5:3 v/v).

[2] = 24 hour metabolism study, distribution of radioactivity; format: in vivo, Male Wistar rats
Method: [^3H]AQ (54 μmol/kg) was administered i.p to male Wistar rats (200-300 g). Each animal was placed in a wire-bottom metabolism cage with access to food and water. Urine was collected over 24 h, the cage was rinsed with distilled water (10 ml) at the end of the collection period. […] All samples were stored at −80° C. until analysed. Previous ISQ data was obtained for comparison with AQ. […] Samples were left in darkness overnight to prevent chemiluminescence. Radioactivity was then determined using a Packard 1500 Liquid Scintillation Analyser. Portions of each tissue (50-100 mg) and aliquots of red blood cells (50-60 mg) were taken in duplicate; tissue solubilizer (0.5 ml) was added to each sample and left overnight at 50° C. The samples were cooled to room temperature before being decolourised with hydrogen peroxide (200 μl) and left for 1 h. The mixture was then neutralised with glacial acetic acid (30 μl) and 12 ml of scintillation fluid was added. The mixture was mixed thoroughly and left overnight in the dark. The samples were assayed for radioactivity. (all volumes of chemicals to be added were doubled for solubulizing the red blood cells)

[3] = Radioactivity in plasma and red blood cells during 5 h after dosing; format: in vivo, Male Wistar rats; conditions: for average plasma level, % of the dose: throughout the 5 h experiment
Method: The animal was anaesthetised and the jugular vein cannulated as described above. To allow blood samples to be taken regularly, the carotid artery was cannulated with 0.58 mm I.D. polythene tubing. The cannula was attached to a heparinised saline syringe to prevent blood escaping from the cannula and to prevent air bubbles from entering the blood stream. The animals were dosed as described above and the clock was started at the end of the dosing period. Blood samples (300 μl) were collected at 15 mins, 30 mins and hourly post-dosing. Heparinised saline was flushed through the cannula after every blood collection to prevent clotting within the tubing. The saline was allowed to drain out of the cannula prior to every collection point. After the fifth hour sample had been collected, all remaining blood within the rat was allowed to drain from the cannula into a heparinised tube. All samples were […] (4000 rpm for 5 min) immediately after collection and the pellet and supernatant were separated. The volume of the plasma was recorded. The tissues were also removed and weighed all samples were stored at -80° C. until analysed. The active components of the plasma were removed via extraction with ether for LC/MS analysis. […] Samples were left in darkness overnight to prevent chemiluminescence. Radioactivity was then determined using a Packard 1500 Liquid Scintillation Analyser. Portions of each tissue (50-100 mg) and aliquots of red blood cells (50-60 mg) were taken in duplicate; tissue solubilizer (0.5 ml) was added to each sample and left overnight at 50° C. The samples were cooled to room temperature before being decolourised with hydrogen peroxide (200 μl) and left for 1 h. The mixture was then neutralised with glacial acetic acid (30 μl) and 12 ml of scintillation fluid was added. The mixture was mixed thoroughly and left overnight in the dark. The samples were assayed for radioactivity. (all volumes of chemicals to be added were doubled for solubulizing the red blood cells)

[4] = tested on: P. bergheri; test: In vivo activity in the mouse model against P. bergheri; conditions: in words
[5] = tested on: HB3 strain of P. falciparum (chloroquine sensitive); test: In vitro antimalarial activity, 48-h [3H]-hypoxanthine incorporation assay, HB3 strain; format: cell-based; conditions: Plasmodium falciparum; chloroquine sensitive HB3 isolate, n=4
Method: (§1) Antimalarial activity. Two strains of P. falciparum were used in this study: (a) The K1 strain which is known to be CQ resistant and (b) the HB3 strain which is sensitive to all antimalarials. Parasites were maintained in continuous culture using the method of Jensen and Trager. (J. Parasitol., 1977, 63, 883-886) Cultures were grown in flasks containing human erythrocytes (2-5%) with parasitemia in the range of 1% to 10% suspended in RPMI 1640 medium supplemented with 25 mM HEPES and 32 mM NaHCO3, and 10% human serum (complete medium). Cultures were gassed with a mixture of 3% O2, 4% CO2 and 93% N2. Antimalarial activity was assessed with an adaption of the 48-h sensitivity assay of Desjardins et al. (Antimicrob. Agents. Chemother., 1979, 16, 710-718.) using [^3H]-hypoxanthine incorporation as an assessment of parasite growth. Stock drug solutions were prepared in 100% dimethylsulphoxide (DMSO) and diluted to the appropriate concentration using complete medium. […] Cultures were incubated for a further 24 h before they were harvested onto filter-mats, dried for 1 h at 55° C. and counted using a Wallac 1450 Microbeta Trilux Liquid scintillation and luminescence counter. IC50 values were calculated by interpolation of the probit transformation of the log dose—response curve. […]

[6] = LC/MS and radiochromatographic analysis of urinary, biliary and plasma metabolites; format: in vivo, Male Wistar rats; conditions: for biliary metabolite identified (main) / glutathione (GSH) conjugates or metabolites found: rat bile; for biliary metabolite identified (main): i.v.; for glutathione (GSH) conjugates or metabolites found: urine or blood; for main compound or metabolite in plasma: rat plasma ether extracts
Method: After the fifth hour sample had been collected, all remaining blood within the rat was allowed to drain from the cannula into a heparinised tube. All samples were centrifiged (4000 rpm for 5 min) immediately after collection and the pellet and supernatant were separated. The volume of the plasma was recorded. The tissues were also removed and weighed all samples were stored at −80° C. until analysed. The active components of the plasma were removed via extraction with ether for LC/MS analysis.
Analysis of Urinary, Binary and Plasma Metabolites of Male Wistar Rats Dosed with [3H]AQ or [^3H]ISQ.
Our samples were analysed using MassLynx software. Aliquots (50-100 μl) of bile, urine and plasma ether extracts, were eluted from a Zorbax SB-18 column with a slow acetonitrile gradient (10-50% over 30 mins) in ammonium acetate (5.0 mM, pH3.8) at 0.9 ml/min. Two Jasco PU-980 pumps were linked to a mixing module, allowing effluent to mix with scintillation fluid prior to reaching the Flo-One A250 _eta radioactive flow detector or allowing the effluent to be delivered to the Quattro II mass spectrometer. Nebulising and drying gas were delivered at a rate of 13 L/h and 300 L/h respectively. The temperature of the LC/MS interface was 70° C. and the capillary voltage was […]. The extent of fragmentation was modulated via altering the cone voltage.

[7] = Biliary and urinary excretion and tissue distribution of radioactivity 5 h after i.v. [3H]AQ or [3H]ISQ; format: in vivo, Male Wistar rats; conditions: for % of dose accounted for (bile, tissues, plasma, urine): total recovery
Source text: Investigation of Biliary and Urinary Excretion of [^3H] AQ and [^3H] ISQ After Administration to Male Wistar Rats. […] The rats were carefully monitored throughout the procedure to ensure that anaesthesia was maintained. A small incision was made in the throat and the trachea was located, via blunt dissection of the surrounding connective tissue. A 1.57 mm (I.D.) polythene tube cannula was inserted and securely fastened. […] A syringe containing saline was attached to the jugular cannula to act as a seal preventing air bubbles from entering the vein. An incision was made along the midline of the abdomen. The common bile duct was located and allowed to dilate before a 0.58 mm (I.D.) cannula was inserted. Control bile was obtained. The penis was ligated, to allow urine to be collected during the experiment. […] DMSO replaced the saline in the jugular cannula to prevent the drug precipitating out of solution during dosing. A 500 μl Hamilton syringe was filled with either [^3H]AQ or [^3H]ISQ (54 μmol/kg, 25 μCi/kg) and connected to the cannula. The radiolabelled compounds were infused via the jugular vein over a period of 30 mins to prevent respiratory depression caused by DMSO. Bile fractions were collected at hourly intervals for 5 h from the start of dosing, All samples were weighed and there weight recorded. After 5 h any remaining urine was aspirated from the bladder and blood was collected via cardiac puncture with a heparinised needle into a heparinised tube. […] Tissues (brain, heart, kidney, liver, lung, spleen and skin) were removed from the animal, rinsed in saline before being placed in vials and weighed. All samples were stored at −80° C. until they were required for analysis. […] Samples were left in darkness overnight to prevent chemiluminescence. Radioactivity was then determined using a Packard 1500 Liquid Scintillation Analyser. Portions of each tissue (50-100 mg) and aliquots of red blood cells (50-60 mg) were taken in duplicate; tissue solubilizer (0.5 ml) was added to each sample and left overnight at 50° C. The samples were cooled to room temperature before being decolourised with hydrogen peroxide (200 μl) and left for 1 h. The mixture was then neutralised with glacial acetic acid (30 μl) and 12 ml of scintillation fluid was added. The mixture was mixed thoroughly and left overnight in the dark. The samples were assayed for radioactivity. (all volumes of chemicals to be added were doubled for solubulizing the red blood cells)

[8] = tested on: P. yoelii NS strain; test: In vivo 4-day test, P. yoelii NS rodent malaria model; set-up: species or system P. yoelii (Swiss albino mice); conditions: oral administration, standard 4-day test, repeated twice
Method: as §1

[9] = Table 2, chloroquine resistant K1 Plasmodium falciparum, read-out: IC50
[10] = Plasmodium falciparum, chloroquine resistant K1 isolate, n=4, read-out: IC50
[11] = 5 h after i.v. 54 μmol/kg, mean±s.e.m.
[12] = male, Wistar, rat, in vivo, 24 h
[13] = male, Wistar, rat, in vivo, iv, 5 h

- IC50 [1, 9]: 25.2 nM
SMILES: CN(C)Cc1ccc(Nc2ccnc3c2=CCC(Cl)C=3)cc1O (stereo not drawn) [ISQ2]

- IC50 [1, 9]: 23.8 nM
SMILES: CCCN(CCC)Cc1ccc(Nc2ccnc3c2=CCC(Cl)C=3)cc1O (stereo not drawn) [ISQ3]

- IC50 [1, 9]: 14.9 nM
SMILES: CCCCN(CCCC)Cc1ccc(Nc2ccnc3c2=CCC(Cl)C=3)cc1O (stereo not drawn) [ISQ4]

More lines, now with the values behind:

SMILES: CCN(CC)CCCC(C)Nc1ccnc2cc(Cl)ccc12 (stereo not drawn) [Chloroquine, chloroquine, reference compound]
- IC50 ([1]; Plasmodium falciparum, K1, read-out: IC50 nM): 190 to 250 nM

SMILES: CCNCc1ccc(Nc2ccnc3c2=CCC(Cl)C=3)cc1O (stereo not drawn) [ISQ1]
- IC50 [1, 9]: 16.5 nM

SMILES: CC(C)NCc1ccc(Nc2ccnc3c2=CCC(Cl)C=3)cc1O (stereo not drawn) [ISQ5]
- IC50 [1, 9]: 22.7 nM

SMILES: CCN(CC)Cc1ccc(Nc2ccnc3cc(Cl)ccc23)cc1O [Isoquine, 4-N-(3′-hydroxy-4′-[N,N-diethylaminomethyl])anilino-7-chloroquinoline]
- % of dose remaining in liver ([2]; after 24 h): 5.48%
- % of dose remaining in skin ([2]; after 24 h): 5.6%
- % of dose remaining in the tissues ([2]; after 24 h, 54 μmol/kg): 13.87%
- % of dose in remaining tissues ([2]; after 24 h, tissues other than liver and skin): 2.97%
- % of dose removed from liver ([2]; difference between 5 h and 24 h): 27.45%
- plasma levels relative to AQ ([3]; over 5 h): 3 fold
- average plasma level, % of the dose [3]: 0.095%
- % of dose in red blood cells, constant level ([3]; throughout the experiment): 0.12%
- IC50 [1, 10]: 6 nM
- IC50 [1, 9]: 15.7 nM
- in vivo activity against P. bergheri [4]: superior in vivo activity
- IC50 [5]: 9 nM
- formation of toxic or reactive metabolites ([6]; in vivo, in words): does not form toxic metabolites
- biliary metabolite identified (main) ([6]; LC/MS): isoquine aldehyde glucuronide metabolite
- glutathione (GSH) conjugates or metabolites found ([6]; LC/MS): complete lack of glutathione metabolites
- main compound or metabolite in plasma ([6]; LC/MS): parent compound
- main compound excreted in urine ([6]; rat urine, LC/MS): parent compound isoquine
- % of dose excreted into bile [7, 11]: 12.73%
- % of dose recovered in skin [7, 11]: 21.46%
- % of dose remaining in heart [7, 11]: 0.58%
- % of dose remaining in liver [7, 11]: 32.93%
- % of dose remaining in plasma [7, 11]: 0.13%
- increase in liver accumulation compared with AQ ([7]; after 5 h): approximately 10%
- % of dose in tissues ([7]; after 5 h, all tissues): 70.92%
- % of dose accounted for (bile, tissues, plasma, urine) ([7]; after 5 h): 87.17%
- % of dose excreted into urine ([7]; over 5 h after i.v. 54 μmol/kg, mean±s.e.m.): 3.39%

SMILES: CCN(CC)Cc1cc(Nc2ccnc3cc(Cl)ccc23)ccc1O [amodiaquine, reference compound]
- % of dose removed from liver ([2]; male, Wistar, rat, in vivo): 13.97%
- % of dose remaining in liver [2, 12]: 6.85%
- % of dose remaining in plasma [2, 12]: 0.02%
- % of dose remaining in skin [2, 12]: 7.18%
- % of dose in red blood cells after 5 h ([3]; after 5 h): 0.09%
- % of dose in red blood cells, initially ([3]; start of 5 h period): 0.12%
- average plasma level, % of the dose [3]: approximately 0.034%
- IC50 [1, 10]: 25 nM
- IC50 [5]: 18 nM
- ED50 ([8]; Plasmodium yoelii, in Mus musculus, po, 96 h, read-out: ED50): 7.9 mg/kg
- ED50 [8]: 7.4 mg/kg
- biliary metabolite identified (main) ([6]; LC/MS): a glutathione conjugate of AQ
- glutathione (GSH) conjugates or metabolites found ([6]; LC/MS): glutathione metabolites were observed
- main compound or metabolite in plasma ([6]; LC/MS): desethylAQ
- % of dose recovered in skin [7, 11]: 22.12%
- % of dose accounted for (bile, tissues, plasma, urine) ([7]; after 5 h): 78.56%
- % of dose remaining in heart [7, 13]: 0.34%
- % of dose remaining in liver [7, 13]: 20.82%
- % of dose remaining in plasma [7, 13]: 0.04%
